In article PMC10008561 (Nature Communications, 2023):
“And” between values parts separate entries of the source, which are not always exact repeats. Equal values may be shown once. Read-outs that look alike come from different tables or passages of the source.

Columns and labels:
[1] = target: T1, human KOR (Gustducin) (Homo sapiens, UniProt P41145, F283A); test: cell-based; conditions: HEK-293T
T1 construct: expressed in transfected cells; host or cells: HEK293T

[2] = target: T2, human KOR (Gustducin) (Homo sapiens, UniProt P41145, D266A); test: cell-based; conditions: HEK-293T
T2 construct: expressed in transfected cells; host or cells: HEK293T

[3] = target: T3, human KOR (Gustducin) (Homo sapiens, UniProt P41145, R271A); test: cell-based; conditions: HEK-293T
T3 construct: expressed in transfected cells; host or cells: HEK293T

[4] = target: T4, human KOR (Gustducin) (Homo sapiens, UniProt P41145, D105A); test: cell-based; conditions: HEK-293T
T4 construct: expressed in transfected cells; host or cells: HEK293T

[5] = target: T5, human KOR (Gustducin) (Homo sapiens, UniProt P41145, N141A); test: cell-based; conditions: HEK-293T
T5 construct: expressed in transfected cells; host or cells: HEK293T

[6] = target: T6, human KOR (Gustducin) (Homo sapiens, UniProt P41145, K200A); test: cell-based; conditions: HEK-293T
T6 construct: expressed in transfected cells; host or cells: HEK293T

[7] = target: T7, human KOR (Gustducin) (Homo sapiens, UniProt P41145, R170A); test: cell-based; conditions: HEK-293T
T7 construct: expressed in transfected cells; host or cells: HEK293T

[8] = target: T8, human KOR (Gustducin) (Homo sapiens, UniProt P41145, N326A); test: cell-based; conditions: HEK-293T
T8 construct: expressed in transfected cells; host or cells: HEK293T

[9] = target: T9, human KOR (Gustducin) (Homo sapiens, UniProt P41145, R274A); test: cell-based; conditions: HEK-293T
T9 construct: expressed in transfected cells; host or cells: HEK293T

[10] = target: T10, human KOR (Gustducin) (Homo sapiens, UniProt P41145, R257A); test: cell-based; conditions: HEK-293T
T10 construct: expressed in transfected cells; host or cells: HEK293T

[11] = target: T11, human KOR (Gustducin) (Homo sapiens, UniProt P41145, Y320L); test: cell-based; conditions: HEK-293T
T11 construct: expressed in transfected cells; host or cells: HEK293T

[12] = target: T12, human KOR (Gustducin) (Homo sapiens, UniProt P41145, G319L); test: cell-based; conditions: HEK-293T
T12 construct: expressed in transfected cells; host or cells: HEK293T

[13] = target: T13, human KOR (Gustducin) (Homo sapiens, UniProt P41145, E297A); test: cell-based; conditions: HEK-293T
T13 construct: expressed in transfected cells; host or cells: HEK293T

[14] = target: T14, human KOR (Gustducin) (Homo sapiens, UniProt P41145, N322A); test: cell-based; conditions: HEK-293T
T14 construct: expressed in transfected cells; host or cells: HEK293T

[15] = target: T15, human KOR (Gustducin) (Homo sapiens, UniProt P41145, F114L); test: cell-based; conditions: HEK-293T
T15 construct: expressed in transfected cells; host or cells: HEK293T

[16] = target: T16, human KOR (Gustducin) (Homo sapiens, UniProt P41145, Y139L); test: cell-based; conditions: HEK-293T
T16 construct: expressed in transfected cells; host or cells: HEK293T

[17] = target: T17, human KOR (Gustducin) (Homo sapiens, UniProt P41145); test: cell-based
T17 construct: expressed in transfected cells; host or cells: HEK293T

[18] = target: T18, human KOR (Gustducin) (Homo sapiens, UniProt P41145, L253A); test: cell-based; conditions: HEK-293T
T18 construct: expressed in transfected cells; host or cells: HEK293T

[19] = target: T19, human KOR (Gustducin) (Homo sapiens, UniProt P41145, D334A); test: cell-based; conditions: HEK-293T
T19 construct: expressed in transfected cells; host or cells: HEK293T

[20] = target: T20, human KOR (Gustducin) (Homo sapiens, UniProt P41145, K227A); test: cell-based; conditions: HEK-293T
T20 construct: expressed in transfected cells; host or cells: HEK293T

[21] = target: T21, human KOR (Gustducin) (Homo sapiens, UniProt P41145, D155A); test: cell-based; conditions: HEK-293T
T21 construct: expressed in transfected cells; host or cells: HEK293T

[22] = target: T22, human KOR (Gustducin) (Homo sapiens, UniProt P41145, Q115N); test: cell-based; conditions: HEK-293T
T22 construct: expressed in transfected cells; host or cells: HEK293T

[23] = target: T23, human KOR (Gustducin) (Homo sapiens, UniProt P41145, T94V); test: cell-based; conditions: HEK-293T
T23 construct: expressed in transfected cells; host or cells: HEK293T

[24] = target: T24, human KOR (Gz) (Homo sapiens, UniProt P41145, K200A); test: cell-based
T24 construct: expressed in transfected cells; host or cells: HEK293T

[25] = target: T25, human KOR (Gz) (Homo sapiens, UniProt P41145, F283A); test: cell-based
T25 construct: expressed in transfected cells; host or cells: HEK293T

[26] = target: T26, human KOR (Gz) (Homo sapiens, UniProt P41145, Y320L); test: cell-based
T26 construct: expressed in transfected cells; host or cells: HEK293T

[27] = target: T27, MOR (Homo sapiens, UniProt P35372); test: Radioligand competition binding (3H-Diprenorphine)
T27 construct: expressed in transfected cells; host or cells: HEK293

[28] = target: T28, human KOR (β-arrestin 2) (Homo sapiens, UniProt P41145, Y139L); test: cell-based; conditions: HEK-293T
T28 construct: expressed in transfected cells; host or cells: HEK293T

[29] = target: T29, human KOR (β-arrestin 2) (Homo sapiens, UniProt P41145, R274A); test: cell-based; conditions: HEK-293T
T29 construct: expressed in transfected cells; host or cells: HEK293T

[30] = target: T27, MOR; test: BRET-Gi1 protein activation; type: cell-based
[31] = target: human KOR (Homo sapiens, UniProt P41145); test: cell-based; set-up: expressed in transfected cells; host or cells: HEK 293T (ATCC, CRL-3216); conditions: HEK-293T
[32] = read-out: KOR WT_Gi response (Figure S4D)
[33] = read-out: cAMP response (Figure S4C)

human KOR, sequence (P41145 whole entry): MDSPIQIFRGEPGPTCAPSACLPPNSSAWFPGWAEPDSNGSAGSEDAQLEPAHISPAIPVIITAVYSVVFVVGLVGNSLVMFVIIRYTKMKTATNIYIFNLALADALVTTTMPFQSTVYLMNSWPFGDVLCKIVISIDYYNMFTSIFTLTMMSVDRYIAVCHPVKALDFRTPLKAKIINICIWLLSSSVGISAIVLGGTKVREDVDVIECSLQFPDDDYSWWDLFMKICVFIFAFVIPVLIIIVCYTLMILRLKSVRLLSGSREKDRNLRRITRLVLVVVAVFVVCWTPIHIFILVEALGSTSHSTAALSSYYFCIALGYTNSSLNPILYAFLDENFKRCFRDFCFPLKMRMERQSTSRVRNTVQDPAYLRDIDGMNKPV
T26 sequence (P41145 whole entry Y320L): as the sequence (P41145 whole entry) above, with Y320L counted along it
T25 sequence (P41145 whole entry F283A): as the sequence (P41145 whole entry) above, with F283A counted along it
T27 sequence (P35372 whole entry): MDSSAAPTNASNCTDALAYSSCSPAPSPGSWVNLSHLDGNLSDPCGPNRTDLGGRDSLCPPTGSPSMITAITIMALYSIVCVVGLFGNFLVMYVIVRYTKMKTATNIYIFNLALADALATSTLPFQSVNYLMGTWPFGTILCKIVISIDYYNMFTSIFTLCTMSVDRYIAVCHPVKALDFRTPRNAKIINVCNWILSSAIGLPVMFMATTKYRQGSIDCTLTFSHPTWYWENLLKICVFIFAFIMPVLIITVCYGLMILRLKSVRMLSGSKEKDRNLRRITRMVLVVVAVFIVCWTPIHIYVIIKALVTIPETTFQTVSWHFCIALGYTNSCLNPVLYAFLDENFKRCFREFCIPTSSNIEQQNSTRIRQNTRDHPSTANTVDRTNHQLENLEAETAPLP
T17 sequence (P41145 whole entry): as the sequence (P41145 whole entry) above
T24 sequence (P41145 whole entry K200A): as the sequence (P41145 whole entry) above, with K200A counted along it
T10 sequence (P41145 whole entry R257A): as the sequence (P41145 whole entry) above, with R257A counted along it
T11 sequence (P41145 whole entry Y320L): as the sequence (P41145 whole entry) above, with Y320L counted along it
T3 sequence (P41145 whole entry R271A): as the sequence (P41145 whole entry) above, with R271A counted along it
T19 sequence (P41145 whole entry D334A): as the sequence (P41145 whole entry) above, with D334A counted along it
T13 sequence (P41145 whole entry E297A): as the sequence (P41145 whole entry) above, with E297A counted along it
T15 sequence (P41145 whole entry F114L): as the sequence (P41145 whole entry) above, with F114L counted along it
T8 sequence (P41145 whole entry N326A): as the sequence (P41145 whole entry) above, with N326A counted along it
T22 sequence (P41145 whole entry Q115N): as the sequence (P41145 whole entry) above, with Q115N counted along it
T1 sequence (P41145 whole entry F283A): as the sequence (P41145 whole entry) above, with F283A counted along it
T18 sequence (P41145 whole entry L253A): as the sequence (P41145 whole entry) above, with L253A counted along it
T28 sequence (P41145 whole entry Y139L): as the sequence (P41145 whole entry) above, with Y139L counted along it
T16 sequence (P41145 whole entry Y139L): as the sequence (P41145 whole entry) above, with Y139L counted along it
T5 sequence (P41145 whole entry N141A): as the sequence (P41145 whole entry) above, with N141A counted along it
T21 sequence (P41145 whole entry D155A): as the sequence (P41145 whole entry) above, with D155A counted along it
T29 sequence (P41145 whole entry R274A): as the sequence (P41145 whole entry) above, with R274A counted along it
T9 sequence (P41145 whole entry R274A): as the sequence (P41145 whole entry) above, with R274A counted along it
T14 sequence (P41145 whole entry N322A): as the sequence (P41145 whole entry) above, with N322A counted along it
T20 sequence (P41145 whole entry K227A): as the sequence (P41145 whole entry) above, with K227A counted along it
T23 sequence (P41145 whole entry T94V): as the sequence (P41145 whole entry) above, with T94V counted along it
T7 sequence (P41145 whole entry R170A): as the sequence (P41145 whole entry) above, with R170A counted along it
T12 sequence (P41145 whole entry G319L): as the sequence (P41145 whole entry) above, with G319L counted along it
T2 sequence (P41145 whole entry D266A): as the sequence (P41145 whole entry) above, with D266A counted along it
T4 sequence (P41145 whole entry D105A): as the sequence (P41145 whole entry) above, with D105A counted along it
T6 sequence (P41145 whole entry K200A): as the sequence (P41145 whole entry) above, with K200A counted along it

`CN(C(=O)/C=C/c1ccoc1)[C@@H]1CC[C@@]2(O)[C@H]3Cc4ccc(O)c5c4[C@@]2(CCN3CC2CC2)[C@H]1O5` [Nalfurafine, nalfurafine] was tested. Which Emax [1] did it give?
Its Emax is 100%.

And the Emax [2]?
Its Emax is 62.6%.

And the Emax [3]?
The Emax was 56.9%.

What about the Emax [4] of the same compound?
The Emax was 70.2%.

And the Emax [5]?
Its Emax is 79.1%.

What about the Emax [6] of the same compound?
Its Emax is 75.7%.

And the Emax [7]?
The Emax was 77.5%.

And the Emax [8]?
Its Emax is 49.2%.

And the Emax [9]?
The Emax was 82%.

What about the Emax [10] of the same compound?
Its Emax is 53.8%.

And the Emax [11]?
The Emax was 80%.

And the Emax [12]?
The Emax was 80.9%.

And the Emax [13]?
Its Emax is 73.1%.

What about the Emax [14] of the same compound?
The Emax was 96.6%.

And the Emax [15]?
The Emax was 60.6%.

And the Emax [16]?
The Emax was 55.3%.

And the Emax% [17]?
Its Emax% is 65%.

What about the Emax ([17]; HEK-293T) of the same compound?
Its Emax is 65.6%.

And the Emax [18]?
Its Emax is 61.4%.

What about the Emax [19] of the same compound?
Its Emax is 100%.

And the Emax [20]?
Its Emax is 85.5%.

What about the Emax [21] of the same compound?
Its Emax is 91.8%.

What about the Emax [22] of the same compound?
The Emax was 62.9%.

What about the Emax [23] of the same compound?
The Emax was 73.6%.

What about the “FC vs wild type” value [24] of the same compound?
Its value is 9.

What about the Emax ([24]; HEK-293T) of the same compound?
The Emax was 108%.

And the “FC vs wild type” value [25]?
The value was 44.

What about the Emax ([25]; HEK-293T) of the same compound?
The Emax was 106%.

And the “FC vs wild type” value [26]?
Its value is 407.

And the Emax ([26]; HEK-293T)?
Its Emax is 93.7%.

What about the Ki [27] of the same compound?
The Ki was 13.2 nM.

What about the Emax [28] of the same compound?
The Emax was 113%.

And the Emax [29]?
The Emax was 83.3%.

And the EC50 [30]?
Its EC50 is 5.13 nM.

And the Emax [31]?
The Emax was 100 ± 2%.

What about the activation at 1 pM [31, 32] of the same compound?
The activation at 1 pM was 34.6%.

And the activation at 3.162 pM [31, 32]?
The activation at 3.162 pM was 50.4%.

And the activation at 10 pM [31, 32]?
The activation at 10 pM was 75.7%.

What about the activation at 31.62 pM [31, 32] of the same compound?
Its activation at 31.62 pM is 89.3%.

And the activation at 0.0001 µM [31, 32]?
The activation at 0.0001 µM was 97.6%.

And the activation at 0.001 µM [31, 32]?
Its activation at 0.001 µM is 96.5%.

What about the activation at 0.1 µM [31, 32] of the same compound?
The activation at 0.1 µM was 103%.

What about the activation at 1 µM [31, 32] of the same compound?
The activation at 1 µM was 100%.

And the activation at […] [31, 32]?
Its activation at […] is 94.1% and 99.5% and 96.9%.

And the activation at 1 pM ([31]; read-out: cAMP response)?
The activation at 1 pM was 42.4%.

What about the activation at 3.162 pM ([31]; read-out: cAMP response) of the same compound?
Its activation at 3.162 pM is 56.3%.

What about the activation at 10 pM ([31]; read-out: cAMP response) of the same compound?
The activation at 10 pM was 78.7%.

And the activation at 31.62 pM ([31]; read-out: cAMP response)?
Its activation at 31.62 pM is 90.8%.

What about the activation at 0.0001 µM ([31]; read-out: cAMP response) of the same compound?
Its activation at 0.0001 µM is 98.1%.

And the activation at 0.001 µM ([31]; read-out: cAMP response)?
Its activation at 0.001 µM is 97.1%.

And the activation at 0.1 µM ([31]; read-out: cAMP response)?
Its activation at 0.1 µM is 103%.

What about the activation at 1 µM ([31]; read-out: cAMP response) of the same compound?
The activation at 1 µM was 101%.

What about the activation at […] ([31]; read-out: cAMP response) of the same compound?
The activation at […] was 95% (2×) and 99.8% and 97.5%.

And the activation at 1 pM [31, 33]?
The activation at 1 pM was 34.6%.

What about the activation at 3.162 pM [31, 33] of the same compound?
Its activation at 3.162 pM is 50.4%.

And the activation at 10 pM [31, 33]?
The activation at 10 pM was 75.7%.

What about the activation at 31.62 pM [31, 33] of the same compound?
Its activation at 31.62 pM is 89.3%.

What about the activation at 0.0001 µM [31, 33] of the same compound?
Its activation at 0.0001 µM is 97.6%.

And the activation at 0.001 µM [31, 33]?
The activation at 0.001 µM was 96.5%.

What about the activation at 0.1 µM [31, 33] of the same compound?
Its activation at 0.1 µM is 103%.

And the activation at 1 µM [31, 33]?
Its activation at 1 µM is 100%.

And the activation at […] [31, 33]?
The activation at […] was 94.1% and 99.5% and 96.9%.
